Measured values taken from patent US9650389B2, “8-oxoprotoberberine derivative or pharmaceutically acceptable salt thereof, preparation method therefor and pharmaceutical composition for preventing or treating diseases associated with activity of NFAT5, containing same as active ingredient” (Korea Research Institute of Chemical Technology, priority 2013, dated 2017).
Read-outs that look alike come from different tables or passages of the source.

Tests used:
iNOS = test: Inhibition of LPS-induced iNOS induction in Raw264.7 cells (Griess reagent); type: cell-based; conditions: Mus musculus, read-out: Inhibition rate of iNOS induction (%)
Description: To investigate whether or not the derivative of the present invention could inhibit iNOS inducement, Raw264.7 cells (mouse macrophages) were distributed in a 384-well plate at the density of 3×10^4 cells/well. The cells were treated with LPS at the concentration of 100 ng/ml, followed by culture at 37° C. for 24 hours. The concentration of […] increased in the medium was measured by using Griess reagent. The inhibition rate was calculated by mathematical formula based on the detected signals. The results are shown in Table 2. % inhibition=(mean value of sample−mean value of negative control)/(mean value of positive control −mean value of negative control)×100 [Mathematical Formula 1]

NFAT5 = target: T1, NFAT5 (Mus musculus, UniProt Q9WV30); test: NFAT5 reporter screening (GFP, HCS) in LPS-treated Raw264.7 cells; type: cell-based; conditions: for Inhibition rate of NFAT5 transcription (%): Raw264.7 reporter, LPS 1 μg/ml, 48 hours
T1 construct: endogenous in cells; host or cells: RAW264.7
Description: To investigate whether or not the derivative of the present invention could inhibit the transcriptional activity of NFAT5, NFAT5 reporter screening was performed. A plasmid vector was constructed by eliminating CMV promoter sequence from the backbone and inserting NFAT5 binding site sequence ([…]) instead. Raw264.7 cells transfected with the vector were cultured in 10% FBS-PRMI (supplemented with 500 μg/ml G418). The cells were distributed in a 96-well plate at the density of 3×10^3 cells/well, followed by further culture for one more day. The cells were treated with LPS at the concentration of 1 μg/ml for 48 hours. Then, the cells were fixed and the expression level of GFP was measured by HCS fluorescence image (Thermo, ArrayScan^VTI).

[1] = 1 μM, Raw264.7, LPS 100 ng/ml, 24 hours
[2] = 10 μM, Raw264.7, LPS 100 ng/ml, 24 hours

T1 sequence (Q9WV30 whole entry): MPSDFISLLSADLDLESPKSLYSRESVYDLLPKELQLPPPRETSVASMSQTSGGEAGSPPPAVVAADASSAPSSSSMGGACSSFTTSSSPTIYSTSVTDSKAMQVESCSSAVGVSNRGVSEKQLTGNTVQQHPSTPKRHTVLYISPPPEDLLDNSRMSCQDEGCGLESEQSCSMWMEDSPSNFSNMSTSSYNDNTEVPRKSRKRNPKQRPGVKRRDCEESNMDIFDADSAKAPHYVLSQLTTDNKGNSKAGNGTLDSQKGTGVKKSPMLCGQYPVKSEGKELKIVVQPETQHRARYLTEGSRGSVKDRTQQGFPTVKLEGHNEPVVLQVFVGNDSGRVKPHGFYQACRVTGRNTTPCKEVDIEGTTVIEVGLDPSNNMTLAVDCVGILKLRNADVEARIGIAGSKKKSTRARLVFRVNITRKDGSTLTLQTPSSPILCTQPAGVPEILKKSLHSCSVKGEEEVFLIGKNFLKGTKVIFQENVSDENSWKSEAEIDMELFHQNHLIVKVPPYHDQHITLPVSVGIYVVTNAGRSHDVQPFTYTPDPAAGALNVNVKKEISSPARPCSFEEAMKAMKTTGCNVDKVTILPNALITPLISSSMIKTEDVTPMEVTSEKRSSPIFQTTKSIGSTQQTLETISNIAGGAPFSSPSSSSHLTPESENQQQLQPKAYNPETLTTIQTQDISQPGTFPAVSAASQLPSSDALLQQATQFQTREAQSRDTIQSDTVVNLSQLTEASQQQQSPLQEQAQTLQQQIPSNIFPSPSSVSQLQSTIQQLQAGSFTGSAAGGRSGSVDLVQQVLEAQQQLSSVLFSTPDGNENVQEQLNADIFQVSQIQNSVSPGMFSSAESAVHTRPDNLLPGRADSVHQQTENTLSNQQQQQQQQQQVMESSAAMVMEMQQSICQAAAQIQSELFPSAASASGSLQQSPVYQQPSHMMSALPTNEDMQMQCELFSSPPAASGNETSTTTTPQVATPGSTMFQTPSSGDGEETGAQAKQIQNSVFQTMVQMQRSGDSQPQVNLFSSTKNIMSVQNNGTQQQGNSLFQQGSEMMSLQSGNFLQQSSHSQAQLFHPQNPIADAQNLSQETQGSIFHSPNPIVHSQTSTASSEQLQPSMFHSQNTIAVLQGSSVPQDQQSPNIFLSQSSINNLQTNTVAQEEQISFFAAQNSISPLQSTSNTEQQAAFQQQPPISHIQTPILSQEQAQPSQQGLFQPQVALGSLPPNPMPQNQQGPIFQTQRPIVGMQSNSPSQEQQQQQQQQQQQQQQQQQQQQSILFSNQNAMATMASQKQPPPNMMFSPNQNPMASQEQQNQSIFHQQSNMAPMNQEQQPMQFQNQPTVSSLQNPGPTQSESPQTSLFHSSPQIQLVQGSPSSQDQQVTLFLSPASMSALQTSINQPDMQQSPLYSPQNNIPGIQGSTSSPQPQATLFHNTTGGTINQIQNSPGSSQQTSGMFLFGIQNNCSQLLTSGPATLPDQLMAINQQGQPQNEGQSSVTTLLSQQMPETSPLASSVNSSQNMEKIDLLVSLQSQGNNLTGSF

Structure (SMILES) | inhibition at 1 µM (iNOS; [1]) [%] | inhibition at 10 µM (iNOS; [2]) [%] | Inhibition rate of NFAT5 transcription (%) (NFAT5; 1 μM) | Inhibition rate of NFAT5 transcription (%) (NFAT5; 10 μM) | inhibition at 1 µM (iNOS; RAW264.7, 24 h) [%] | inhibition at 10 µM (iNOS; RAW264.7, 24 h) [%] | inhibiting NFAT5 activity (in words) (NFAT5; Table 3 and FIG. 1)
COc1ccccc1Cc1c2n(c(=O)c3c(OC)c(OC)ccc13)CCc1cc3c(cc1-2)OCO3 [Example 5, 9,10-dimethoxy-13-(2-methoxybenzyl)-5,6-dihydro-[1,3]dioxolo[4,5-g]isoquinolino [3,2-a]isoquinoline-8(6H)-one] | 29 | 98.3 | 24.2 | 77.6 | – | – | –
COc1ccc2c(C(=O)Nc3ccccc3F)c3n(c(=O)c2c1OC)CCc1cc2c(cc1-3)OCO2 [Example 13, N-(2-fluorophenyl)-9,10-dimethoxy-8-oxo-6,8-dihydro-5H-[1,3]dioxolo[4,5-g]isoquinolino[3,2-a]isoquinoline-13-carboxamide] | 70.8 | 106 | −11.1 | −29.9 | – | – | –
CCOC(=O)c1c2n(c(=O)c3c(OC)c(OC)ccc13)CCc1cc3c(cc1-2)OCO3 [Example 10, ethyl9,10-dimethoxy-8-oxo-6,8-dihydro-5H-[1,3]dioxolo[4,5-g]isoquinolino[3,2-a]isoquinoline-13-carboxylate] | – | – | −3.8 | 53.7 | 53.9 | 99.2 | remarkably excellent in inhibiting NFAT5 activity
COc1ccc2c(C(N)=O)c3n(c(=O)c2c1OC)CCc1cc2c(cc1-3)OCO2 [Example 12, 9,10-dimethoxy-8-oxo-6,8-dihydro-5H-[1,3]dioxolo[4,5-g]isoquinolino[3,2-a]isoquinoline-13-carboxamide] | 35.4 | 107 | −2.9 | −5.2 | – | – | –
COc1ccc2c(C(=O)O)c3n(c(=O)c2c1OC)CCc1cc2c(cc1-3)OCO2 [Example 11, 9,10-dimethoxy-8-oxo-6,8-dihydro-5H-[1,3]dioxolo[4,5-g]isoquinolino[3,2-a]isoquinoline-13-carboxylic acid] | -17.2 | 118 | −10.4 | −12.8 | – | – | –
COc1ccc2c(Cc3nc4ccccc4[nH]3)c3n(c(=O)c2c1OC)CCc1cc2c(cc1-3)OCO2 [Example 7, 13-((1H-benzo[d]imidazole-2-yl)methyl)-9,10-dimethoxy-5,6-dihydro-[1,3]dioxolo [4,5-g]isoquinolino[3,2-a]isoquinoline-8(6H)-one] | – | – | 18.5 | 28.2 | 13.4 | 100 | –
COc1ccc2c(Cc3ccc(F)cc3F)c3n(c(=O)c2c1OC)CCc1cc2c(cc1-3)OCO2 [Example 2, 13-(2,4-difluorobenzyl)-9,10-dimethoxy-5H-[1,3]dioxolo[4,5-g]isoquinolino[3,2-a]isoquinoline-8(6H)-one] | 56.8 | 95.2 | 13.6 | 24.4 | – | – | –
COc1ccc2c(Cc3ccccc3C)c3n(c(=O)c2c1OC)CCc1cc2c(cc1-3)OCO2 [Example 4, 9,10-dimethoxy-13-(2-methylbenzyl)-5,6-dihydro-[1,3]dioxolo[4,5-g]isoquinolino [3,2-a]isoquinoline-8(6H)-one] | 23.2 | 97.9 | 7.4 | 88.2 | – | – | –
COc1ccc2c(C(=O)c3ccccc3F)c3n(c(=O)c2c1OC)CCc1cc2c(cc1-3)OCO2 [Example 9, 13-(2-fluorobenzoyl)-9,10-dimethoxy-5H-[1,3]dioxolo[4,5-g]isoquinolino[3,2-a]isoquinoline-8(6H)-one] | 65.6 | 117 | 0.5 | 16.4 | – | – | –
